Assay results: publication PMC7094550 (Experimental Parasitology, 2017)

Molecular target: T1, Leishmania donovani HMG-CoA reductase (LdHMGR) (Leishmania donovani, UniProt A0A3S7X3U0)
T1 sequence (A0A3S7X3U0 1-434): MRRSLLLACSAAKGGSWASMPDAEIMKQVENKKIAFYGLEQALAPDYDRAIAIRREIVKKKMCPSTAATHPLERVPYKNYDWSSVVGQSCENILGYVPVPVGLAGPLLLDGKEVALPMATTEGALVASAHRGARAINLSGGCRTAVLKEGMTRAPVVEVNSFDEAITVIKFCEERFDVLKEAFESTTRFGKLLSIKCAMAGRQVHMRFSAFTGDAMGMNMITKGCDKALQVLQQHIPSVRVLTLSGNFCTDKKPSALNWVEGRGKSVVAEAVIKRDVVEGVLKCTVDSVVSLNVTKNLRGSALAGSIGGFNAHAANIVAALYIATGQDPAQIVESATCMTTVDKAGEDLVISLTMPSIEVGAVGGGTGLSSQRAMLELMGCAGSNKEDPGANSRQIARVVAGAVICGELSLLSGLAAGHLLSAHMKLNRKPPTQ
Assay: NADPH oxidation assay at […] nm with purified recombinant enzyme
Assay type: biochemical

Question: With `CC(C)c1c(C(=O)Nc2ccccc2)c(-c2ccccc2)c(-c2ccc(F)cc2)n1CC[C@@H](O)C[C@@H](O)CC(=O)O` [Atorvastatin] as the compound, how does the IC50 read?
Answer: 300 nM
